Measured values published in patent EP2253266A1, “Method for treating patients with cerebral calcifications” (Assistance Publique - Hôpitaux de Paris, priority 2009, dated 2010).

Columns and labels:
[1] = system: patients having diffuse cerebral calcifications; experiment: Clinical response to treatment of patients with cerebral calcifications and cerebral folate deficiency (global disability score, subjective evaluations, neurological examination, serial videos); assay type: in vivo, humans; parameters: key to Global score after treatment: 1: Autonomous for all activities of daily living; 2: can walk at least 100 meters alone, needs help for few activities of daily living; 3: can walk unaided about 10 meters, needs help for many activities of daily living; 4: can not walk alone, needs aid for most activities of daily living; settings: for Global score after treatment: global score before treatment 3
Description: Three patients having diffuse cerebral calcifications involving the basal ganglia, cerebellar dentate nuclei, white matter and in one patient the occipital cortex (Table 3) were studied. These neuroradiological findings were indistinguishable from Fahr's Syndrome (IBGC MIM # 114100, # 213600). […] Autonomous for all activities of daily living • 2: can walk at least 100 meters alone, needs help for few activities of daily living • 3: can walk unaided about 10 meters, needs help for many activities of daily living • 4: can not walk alone, needs aid for most activities of daily living. The clinical response to treatment was judged based on the patient's, patient's family, nurses and neurologist subjective evaluations, neurological examination and serial videos. A global disability score was designed to evaluate clinical severity and evolution (see table 3 legend). Table 4: Effect of treatments

[2] = quoted from WO 2006/119589; cited from earlier work
[3] = quoted from WO 2006/119589; cited from earlier work; remark: listed apart in the source

With `Nc1nc2c(c(=O)[nH]1)N(C=O)C(CNc1ccc(C(=O)N[C@@H](CCC(=O)O)C(=O)O)cc1)CN2` (stereo partly shown) [Calcium folinate, 5-formyltetrahydrofolic acid] the “other treatments leading to less or only transient improvement” value ([1]; patient #1, IVIg 0.4gr/kgX5d every 6weeks) was “Calcium folinate led to marked initial impro-vement that waned after 6 months. IVIg (0.4gr/kgX5d every 6weeks) led to improvement of walking during 4 months” and the “other treatments leading to less or only transient improvement” value ([1]; patient #3, Calcium folinate 75 mg/d) was “Calcium folinate 75 mg/d: same effect than MTHF”.

In the case of `CN1c2c(nc(N)[nH]c2=O)NCC1CNc1ccc(C(=O)NC(CCC(=O)O)C(=O)O)cc1` (stereo not shown) [MTHF, 5-methyltetrahydrofolate], the bio-availability [2] is given as “high bio-availability”, the toxicity studies [3] is given as “no adverse effects” and the “Global score after treatment” value ([1]; patient #1, MTHF 2 mg/kg/d, treatment duration 2 years ½) is given as 2. For the same compound, the “Global score after treatment” value ([1]; patient #2, MTHF 2 mg/kg/d, treatment duration 14 months) was 3 and the “Global score after treatment” value ([1]; patient #3, MTHF 1.5 mg/kg/d, treatment duration 1 year) was 2.
